Values quoted from earlier work in patent US11925695B2, “Methods for making ultrasound contrast agents” (Lantheus Medical Imaging, Inc., priority 2016, dated 2024).
Like-named read-outs stand apart in the source and are kept apart here.

Experiments:
[1] = not given; remark: listed apart in the source

CC(O)CO (centres unmarked) [Propylene glycol, propylene glycol]
viscosity (at 25° C.): 42 cps

CCCCCCCCCCCCCCCC(=O)OC[C@H](COP(=O)(O)OCCN)OC(=O)CCCCCCCCCCCCCCC [DPPE, 1,2-dipalmitoyl-sn-glycero-3-phosphatidylethanolamine]
pKa for the amine of the ethanolamine [1]: 9.3 | pKa for the hydroxyl of the phosphate [1]: 1.9

OCC(O)CO [Glycerol, glycerol]
viscosity (at 15° C.): 2200 cps

O [Water]
viscosity (at 15° C.): approximately 1.14 cps
